Values belong to the compound of their own block, whether it stands above or below them. Where a SMILES comes first, the peptide text is derived from it. Bridges are numbered along the chain shown (N, C = ends). [ ]: non-standard residue; d: D form. Dap = NC[C@H](N)C(=O)O
Columns and labels:
[1] = tested on: Staphylococcus aureus; assay: Antibacterial activity against methicillin-resistant Staphylococcus aureus USA300 infected in CD-1 mouse MRSA sepsis model assessed as survival rate at 30 mg/kg, ip after 144 hrs (reference value: 70%); type: functional
[2] = tested on: Staphylococcus aureus; assay: Antibacterial activity against methicillin-resistant Staphylococcus aureus infected in BALB/c mouse assessed as reduction in skin ulcer formation at 25 ug, id after 4 days relative to control; type: functional; design: scale not given: the % may be the effect or the level left
[3] = tested on: Staphylococcus aureus; assay: Inhibition of AIP biosynthesis in methicillin-resistant Staphylococcus aureus USA300 incubated for 16 hrs by LC-MS analysis; type: functional, organism-based; conditions: USA300, 16 h
[4] = tested on: Staphylococcus aureus; assay: Antibacterial activity against methicillin-resistant Staphylococcus aureus infected in BALB/c mouse assessed as reduction in skin ulcer formation at 5 ug, id after 4 days relative to control; type: functional; design: scale not given: the % may be the effect or the level left
[5] = Activation of AgrC-1 Staphylococcus epidermidis AH3408 incubated for 24 hrs by fluorescence assay
[6] = biological target: T1, Receptor-histidine kinase AgrC (Staphylococcus aureus) (UniProt O07911); assay: Activation of AgrC in early exponential phase Staphylococcus aureus SA502A assessed as beta-lactamase activity incubated for 55 mins by spectrophotometric method
T1 sequence (whole entry): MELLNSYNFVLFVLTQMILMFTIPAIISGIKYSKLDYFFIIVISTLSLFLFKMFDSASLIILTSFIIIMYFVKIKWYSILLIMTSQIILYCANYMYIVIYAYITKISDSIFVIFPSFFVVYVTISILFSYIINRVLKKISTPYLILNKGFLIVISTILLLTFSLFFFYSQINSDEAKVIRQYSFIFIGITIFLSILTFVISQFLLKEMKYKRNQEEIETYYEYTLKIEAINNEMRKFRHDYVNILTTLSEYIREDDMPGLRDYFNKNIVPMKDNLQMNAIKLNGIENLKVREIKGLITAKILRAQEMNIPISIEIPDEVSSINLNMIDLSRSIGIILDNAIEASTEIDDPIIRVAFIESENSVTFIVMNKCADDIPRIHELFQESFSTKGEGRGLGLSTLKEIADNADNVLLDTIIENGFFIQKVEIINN

[7] = Agonist activity at AgrC-3 in Staphylococcus aureus incubated for 60 to 90 mins in presence of AIP agonist by beta-lactamase reporter gene assay
[8] = Agonist activity at AgrC-4 in Staphylococcus aureus RN9371 incubated for 60 to 90 mins in presence of AIP agonist by beta-lactamase reporter gene assay
[9] = biological target: T2, Receptor-histidine kinase AgrC (Staphylococcus aureus, UniProt O07911); assay: Inhibition of AgrC in mid-exponential phase Staphylococcus aureus RN8463 assessed as beta-lactamase activity incubated for 80 mins by spectrophotometric method
T2 sequence (O07911 whole entry): T1 sequence (whole entry)

[10] = Inhibition of AgrC-1 Staphylococcus aureus RN10829 incubated for 45 mins by beta-lactamase reporter gene assay
[11] = Inhibition of AgrC-1 in Staphylococcus aureus RN9222 incubated for 60 to 90 mins in presence of AIP agonist by beta-lactamase reporter gene assay
[12] = biological target: T2, Receptor-histidine kinase AgrC; assay: Inhibition of AgrC in mid-exponential phase Staphylococcus aureus RN6390B assessed as beta-lactamase activity incubated for 80 mins by spectrophotometric method
[13] = tested on: Staphylococcus aureus; assay: Agonist activity at AgrC-2 in Staphylococcus aureus RN9372 incubated for 60 to 90 mins by beta-lactamase reporter gene assay
[14] = Drug degradation in ammonium carbonate solution 0.3 mg after 8 hrs after RP-HPLC analysis; type: physicochemical; conditions: read-out: Drug degradation
[15] = Inhibition of AgrC-1 in Staphylococcus aureus AH1677 incubated for 24 hrs by fluorescence assay
[16] = Inhibition of AgrC-2 in Staphylococcus aureus RN9372 incubated for 60 to 90 mins in presence of AIP agonist by beta-lactamase reporter gene assay
[17] = tested on: Staphylococcus aureus; assay: Agonist activity at AgrC-3 in Staphylococcus aureus incubated for 60 to 90 mins by beta-lactamase reporter gene assay
[18] = Drug degradation in ammonium carbonate solution 0.3 mg after 24 hrs after RP-HPLC analysis; type: physicochemical; conditions: read-out: Drug degradation
[19] = Inhibition of AgrC-3 in Staphylococcus aureus AH1747 incubated for 24 hrs by fluorescence assay
[20] = Drug degradation in ammonium carbonate solution 0.3 mg after 72 hrs after RP-HPLC analysis; type: physicochemical; conditions: read-out: Drug degradation
[21] = Inhibition of AgrC-4 in Staphylococcus aureus AH1872 incubated for 24 hrs by fluorescence assay
[22] = Inhibition of AgrC-2 in Staphylococcus aureus AH430 incubated for 24 hrs by fluorescence assay
[23] = tested on: Staphylococcus aureus; assay: Agonist activity at AgrC-1 in Staphylococcus aureus RN9222 incubated for 60 to 90 mins by beta-lactamase reporter gene assay
[24] = biological target: T2, Receptor-histidine kinase AgrC; assay: Inhibition of AgrC in mid-exponential phase Staphylococcus aureus SA502A assessed as beta-lactamase activity incubated for 80 mins by spectrophotometric method
[25] = tested on: Staphylococcus aureus; assay: Agonist activity at AgrC-4 in Staphylococcus aureus RN9371 incubated for 60 to 90 mins by beta-lactamase reporter gene assay
[26] = biological target: T1, Receptor-histidine kinase AgrC (Staphylococcus aureus); assay: Activation of AgrC in early exponential phase Staphylococcus aureus RN6390B assessed as beta-lactamase activity incubated for 55 mins by spectrophotometric method

Compound: CCCCCCc1cc(C(=O)COc2ccc(C(C)C)cc2)c(O)cc1O
survival at 30 mg/kg [1]: 100%

Compound: CCCCC/C=C/C1=C(CO)[C@@H](O)[C@H]2O[C@@]2(C/C=C(\C)C(=O)O)C1=O
Activity [2]: 100%
IC50 [3]: 2500 nM
Activity [4]: 50%

EC50 [5]: 10.3 nM
Compound: CC(C)[C@H](NC(=O)[C@H](CO)NC(=O)[C@H](C)N)C(=O)N[C@H]1CSC(=O)[C@H](Cc2ccccc2)NC(=O)[C@H](Cc2ccc(O)cc2)NC(=O)[C@H](C)NC(=O)[C@H](C)NC1=O (H-ASVCAAYF; thioester 4-C)

Compound: CC(C)C[C@@H]1NC(=O)[C@H](CO)NC(=O)[C@H](CO)NC(=O)[C@@H](NC(=O)[C@H](C)NC(=O)[C@H](CC(N)=O)NC(=O)[C@@H](NC(=O)CN)C(C)C)CSC(=O)[C@H](Cc2ccccc2)NC1=O (H-GVNACSSLF; thioester 5-C)
ED50 [6]: 3.6 nM
IC50 [7]: 1 nM
IC50 [8]: 86 nM
IC50 [9]: 3.2 nM
IC50 [10]: 12 nM
IC50 [11]: 40 nM
IC50 [12]: 2.9 nM
ED50 [13]: 30 nM

IC50 [8]: 150 nM
degraded at 8 h [14]: 100%
IC50 [11]: 70 nM
IC50 [15]: 5.05 nM
IC50 [16]: 6 nM
ED50 [17]: 26 nM
Compound: CC[C@H](C)[C@H](N)C(=O)N[C@@H](CC(N)=O)C(=O)N[C@H]1CSC(=O)[C@H](CC(C)C)NC(=O)[C@H](CC(C)C)NC(=O)[C@H](Cc2ccccc2)NC(=O)[C@H](CC(=O)O)NC1=O (H-INCDFLL; thioester 3-C)

degraded at 24 h [18]: 10%
IC50 [19]: 0.0551 nM
degraded at 72 h [20]: 40%
IC50 [21]: 0.192 nM
IC50 [22]: 2.19 nM
IC50 [15]: 1.2 nM
Compound: CC[C@H](C)[C@H](N)C(=O)N[C@@H](CC(N)=O)C(=O)N[C@H]1CNC(=O)[C@H](CC(C)C)NC(=O)[C@H](CC(C)C)NC(=O)[C@H](Cc2ccccc2)NC(=O)[C@H](C)NC1=O (H-IN[Dap]AFLL; lactam 3-C)

Compound: CC[C@H](C)[C@@H]1NC(=O)[C@H](Cc2ccccc2)NC(=O)[C@H](CC(=O)O)NC(=O)[C@@H](NC(=O)[C@@H](NC(=O)[C@H](CO)NC(=O)[C@@H](N)Cc2ccc(O)cc2)[C@@H](C)O)CSC(=O)[C@H](CCSC)NC1=O (H-YSTCDFIM; thioester 4-C)
ED50 [23]: 28 nM
IC50 [7]: 3 nM
IC50 [24]: 3.4 nM
IC50 [9]: 3.1 nM
ED50 [25]: 26000 nM
IC50 [16]: 25 nM
ED50 [26]: 10.2 nM

Reference: ChEMBL document CHEMBL4402540, “Structure-Activity Relationship Studies of Small Molecule Modulators of the Staphylococcal Accessory Gene Regulator” (J Med Chem, 2020)
